From PubChem BioAssay (NCI)
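GI50 marks 50% less growth. TGI is the concentration that stops growth completely.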

Key:
Experiment in all cases: NCI anticancer screen, dose series, 384-well format
NCI-H226 lung = system: NCI-H226 lung
HCT-116 colon = system: HCT-116 colon
MDA-MB-468 breast = system: MDA-MB-468 breast
ACHN renal = system: ACHN renal
SW-620 colon = system: SW-620 colon
SN12C renal = system: SN12C renal
SNB-75 CNS = system: SNB-75 CNS
SF-268 CNS = system: SF-268 CNS
SK-MEL-28 melanoma = system: SK-MEL-28 melanoma
OVCAR-3 ovarian = system: OVCAR-3 ovarian
OVCAR-4 ovarian = system: OVCAR-4 ovarian
T-47D breast = system: T-47D breast
K-562 leukemia = system: K-562 leukemia
MALME-3M melanoma = system: MALME-3M melanoma
UACC-257 melanoma = system: UACC-257 melanoma
SF-539 CNS = system: SF-539 CNS
IGROV1 ovarian = system: IGROV1 ovarian
NCI-H322M lung = system: NCI-H322M lung
SR leukemia = system: SR leukemia
UO-31 renal = system: UO-31 renal
MDA-MB-231 breast = system: MDA-MB-231 breast
HS 578T breast = system: HS 578T breast
PC-3 prostate = system: PC-3 prostate
SK-MEL-5 melanoma = system: SK-MEL-5 melanoma
MDA-MB-435 melanoma = system: MDA-MB-435 melanoma
U251 glioblastoma = system: U251 glioblastoma
M14 melanoma = system: M14 melanoma
HOP-62 NSCLC = system: HOP-62 NSCLC
SK-OV-3 ovarian = system: SK-OV-3 ovarian
NCI-H23 lung = system: NCI-H23 lung
EKVX NSCLC = system: EKVX NSCLC
TK-10 renal = system: TK-10 renal
SNB-19 CNS = system: SNB-19 CNS
HCT-15 colon = system: HCT-15 colon
KM12 colon = system: KM12 colon
OVCAR-5 ovarian = system: OVCAR-5 ovarian
COLO 205 colon = system: COLO 205 colon
BT-549 breast = system: BT-549 breast
UACC-62 melanoma = system: UACC-62 melanoma
786-0 renal = system: 786-0 renal
HOP-92 NSCLC = system: HOP-92 NSCLC
RXF 393 renal = system: RXF 393 renal
SK-MEL-2 melanoma = system: SK-MEL-2 melanoma
MCF7 breast = system: MCF7 breast
CAKI-1 renal = system: CAKI-1 renal
MOLT-4 leukemia = system: MOLT-4 leukemia
OVCAR-8 ovarian = system: OVCAR-8 ovarian
NCI-H522 lung = system: NCI-H522 lung
HT29 colon = system: HT29 colon
SF-295 CNS = system: SF-295 CNS
A498 renal = system: A498 renal
HL-60(TB) leukemia = system: HL-60(TB) leukemia
DU-145 prostate = system: DU-145 prostate
A549 NSCLC = system: A549 NSCLC
NCI-H460 NSCLC = system: NCI-H460 NSCLC

COc1cccc2c1nc(C(F)F)n2-c1nc(-c2ccc(NS(=O)(=O)CCN(C)C)cc2)nc(N2CCOCC2)n1
GI50 (NCI-H226 lung): 195 nM | TGI (NCI-H226 lung): 873 nM | GI50 (HCT-116 colon): 320 nM | TGI (HCT-116 colon): 1510 nM | GI50 (MDA-MB-468 breast): 76.2 nM | TGI (MDA-MB-468 breast): 431 nM | GI50 (ACHN renal): 144 nM | TGI (ACHN renal): 1050 nM | GI50 (SW-620 colon): 418 nM | TGI (SW-620 colon): 1780 nM | GI50 (SN12C renal): 229 nM | TGI (SN12C renal): 12400 nM | GI50 (SNB-75 CNS): 29.6 nM | TGI (SNB-75 CNS): 361 nM | GI50 (SF-268 CNS): 374 nM | TGI (SF-268 CNS): 1780 nM | GI50 (SK-MEL-28 melanoma): 191 nM | TGI (SK-MEL-28 melanoma): 17100 nM | GI50 (OVCAR-3 ovarian): 138 nM | TGI (OVCAR-3 ovarian): 1110 nM | GI50 (OVCAR-4 ovarian): 144 nM | TGI (OVCAR-4 ovarian): 1550 nM | GI50 (T-47D breast): 24 nM | TGI (T-47D breast): 120 nM | GI50 (K-562 leukemia): 634 nM | TGI (K-562 leukemia): 1950 nM | GI50 (MALME-3M melanoma): 127 nM | TGI (MALME-3M melanoma): 874 nM | GI50 (UACC-257 melanoma): 292 nM | TGI (UACC-257 melanoma): 1360 nM | GI50 (SF-539 CNS): 179 nM | TGI (SF-539 CNS): 1230 nM | GI50 (IGROV1 ovarian): 24.9 nM | TGI (IGROV1 ovarian): 96.3 nM | GI50 (NCI-H322M lung): 151 nM | TGI (NCI-H322M lung): 1090 nM | GI50 (SR leukemia): 153 nM | TGI (SR leukemia): 408 nM | GI50 (UO-31 renal): 125 nM | TGI (UO-31 renal): 384 nM | GI50 (MDA-MB-231 breast): 319 nM | TGI (MDA-MB-231 breast): 1800 nM | GI50 (HS 578T breast): 92.1 nM | TGI (HS 578T breast): 377 nM | GI50 (PC-3 prostate): 122 nM | TGI (PC-3 prostate): 1200 nM | GI50 (SK-MEL-5 melanoma): 93.8 nM | TGI (SK-MEL-5 melanoma): 371 nM | GI50 (MDA-MB-435 melanoma): 255 nM | TGI (MDA-MB-435 melanoma): 1390 nM | GI50 (U251 glioblastoma): 1020 nM | TGI (U251 glioblastoma): 2200 nM | GI50 (M14 melanoma): 390 nM | TGI (M14 melanoma): 1710 nM | GI50 (HOP-62 NSCLC): 285 nM | TGI (HOP-62 NSCLC): 1420 nM | GI50 (SK-OV-3 ovarian): 83.5 nM | TGI (SK-OV-3 ovarian): 362 nM | GI50 (NCI-H23 lung): 148 nM | TGI (NCI-H23 lung): 1040 nM | GI50 (EKVX NSCLC): 53.9 nM | TGI (EKVX NSCLC): 426 nM | GI50 (TK-10 renal): 127 nM | TGI (TK-10 renal): 1220 nM | GI50 (SNB-19 CNS): 3800 nM | TGI (SNB-19 CNS): 22100 nM | GI50 (HCT-15 colon): 300 nM | TGI (HCT-15 colon): 1450 nM | GI50 (KM12 colon): 110 nM | TGI (KM12 colon): 1220 nM | GI50 (OVCAR-5 ovarian): 266 nM | TGI (OVCAR-5 ovarian): 5440 nM | GI50 (COLO 205 colon): 219 nM | TGI (COLO 205 colon): 1100 nM | GI50 (BT-549 breast): 250 nM | TGI (BT-549 breast): 1400 nM | GI50 (UACC-62 melanoma): 206 nM | TGI (UACC-62 melanoma): 1250 nM | GI50 ([…]-0 renal): 491 nM | TGI (786-0 renal): 1690 nM | GI50 (HOP-92 NSCLC): 167 nM | TGI (HOP-92 NSCLC): 998 nM | GI50 (RXF 393 renal): 22.4 nM | TGI (RXF 393 renal): 364 nM | GI50 (SK-MEL-2 melanoma): 282 nM | TGI (SK-MEL-2 melanoma): 1540 nM | GI50 (MCF7 breast): 21.3 nM | TGI (MCF7 breast): 299 nM | GI50 (CAKI-1 renal): 200 nM | TGI (CAKI-1 renal): 1420 nM | GI50 (MOLT-4 leukemia): 46.8 nM | TGI (MOLT-4 leukemia): 176 nM | GI50 (OVCAR-8 ovarian): 323 nM | TGI (OVCAR-8 ovarian): 1590 nM | GI50 (NCI-H522 lung): 98.7 nM | TGI (NCI-H522 lung): 689 nM | GI50 (HT29 colon): 238 nM | TGI (HT29 colon): 1470 nM | GI50 (SF-295 CNS): 161 nM | TGI (SF-295 CNS): 1100 nM | GI50 (A498 renal): 171 nM | TGI (A498 renal): 961 nM | GI50 (HL-60(TB) leukemia): 116 nM | TGI (HL-60(TB) leukemia): 1100 nM | GI50 (DU-145 prostate): 263 nM | TGI (DU-145 prostate): 1390 nM | GI50 (A549 NSCLC): 297 nM | TGI (A549 NSCLC): 1260 nM | GI50 (NCI-H460 NSCLC): 302 nM | TGI (NCI-H460 NSCLC): 1550 nM
